Experiments:
[1] = tested on: cGAS/STING pathway in THP1 cells; experiment: THP1 cell-based cGAS/STING pathway activity assay (IRF-3-linked luciferase reporter); settings: Homo sapiens, THP-1
How it was run: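 THP1 cells carrying an IRF-3-driven luciferase reporter were read across a range of compound concentrations, and IC50 values were derived from these concentration responses; the assay upper limit was 100 μM.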

[2] = biological target: Human cGAS amino acids 155-522 (Homo sapiens (Human), UniProt Q8N884); experiment: cGAS biochemical activity assay (ATP remaining, Kinase-Glo Max luminescence); settings: human cGAS 155-522, ATP remaining (Kinase-Glo Max); read-out: cGAS IC50
Chain of Human cGAS amino acids 155-522 (Q8N884 157-522): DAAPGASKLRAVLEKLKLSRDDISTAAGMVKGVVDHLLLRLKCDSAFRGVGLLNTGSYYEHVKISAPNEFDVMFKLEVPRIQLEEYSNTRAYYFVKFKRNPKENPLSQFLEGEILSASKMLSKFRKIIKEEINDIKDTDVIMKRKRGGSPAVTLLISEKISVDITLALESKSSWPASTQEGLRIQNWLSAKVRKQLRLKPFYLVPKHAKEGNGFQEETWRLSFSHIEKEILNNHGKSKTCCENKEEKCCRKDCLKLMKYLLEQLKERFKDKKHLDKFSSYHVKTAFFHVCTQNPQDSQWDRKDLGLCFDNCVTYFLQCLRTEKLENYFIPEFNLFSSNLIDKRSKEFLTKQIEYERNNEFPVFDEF

IC50 [1] [µM]	IC50 [2] [µM]	Structure (SMILES)
< 20	< 20	COc1[nH]c2c(-c3ccccc3)c(C(F)(F)F)nn2c(=O)c1-c1nc2c(OC)cccc2o1 [Compound C1084, 5-methoxy-6-(4-methoxybenzo[d]oxazol-2-yl)-3-phenyl-2-(trifluoromethyl)pyrazolo[1,5-a]pyrimidin-7(4H)-one]
> 100	< 20	COc1cncc2oc(-c3c(C)[nH]c4c(-c5ccccc5)c(C(F)(F)F)nn4c3=O)nc12 [Compound C1096, 6-(7-methoxyoxazolo[5,4-c]pyridin-2-yl)-5-methyl-3-phenyl-2-(trifluoromethyl)pyrazolo[1,5-a]pyrimidin-7(4H)-one]
20 to 100	< 20	COc1cccc2oc(-c3c(CO)[nH]c4c(-c5ccccc5)c(C(F)(F)F)nn4c3=O)nc12 [Compound C1103, 5-(hydroxymethyl)-6-(4-methoxybenzo[d]oxazol-2-yl)-3-phenyl-2-(trifluoromethyl)pyrazolo[1,5-a]pyrimidin-7(4H)-one]
> 100	20 to 250	Cc1[nH]c2c(-c3ccccc3)c(C(F)(F)F)nn2c(=O)c1C(=O)Nc1cn[nH]c1 [Compound A1068, 5-methyl-7-oxo-3-phenyl-N-(1H-pyrazol-4-yl)-2-(trifluoromethyl)-4,7-dihydropyrazolo[1,5-a]pyrimidine-6-carboxamide]
< 20	< 20	Cc1[nH]c2c(-c3ccccc3)c(C(F)(F)F)nn2c(=O)c1C(=O)Nc1cccc2c1OCCC2 [Compound A1107, N-(chroman-8-yl)-5-methyl-7-oxo-3-phenyl-2-(trifluoromethyl)-4,7-dihydropyrazolo[1,5-a]pyrimidine-6-carboxamide]
> 100	< 20	Cc1[nH]c2c(-c3ccccc3)c(C(F)(F)F)nn2c(=O)c1-c1nnc(C2=NCCCN2)o1 [Compound D1072, 5-methyl-3-phenyl-6-(5-(1,4,5,6-tetrahydropyrimidin-2-yl)-1,3,4-oxadiazol-2-yl)-2-(trifluoromethyl)pyrazolo[1,5-a]pyrimidin-7(4H)-one]
< 20	< 20	Cc1[nH]c2c(-c3ccccc3)c(C(F)(F)F)nn2c(=O)c1C(=O)Nc1cccc(C#N)c1 [Compound A1070, N-(3-cyanophenyl)-5-methyl-7-oxo-3-phenyl-2-(trifluoromethyl)-4,7-dihydropyrazolo[1,5-a]pyrimidine-6-carboxamide]
> 100	< 20	COc1cccc2oc(-c3c(-c4cnn(C)c4)[nH]c4c(-c5ccccc5)c(C(F)(F)F)nn4c3=O)nc12 [Compound C1255, 6-(4-methoxybenzo[d]oxazol-2-yl)-5-(1-methyl-1H-pyrazol-4-yl)-3-phenyl-2-(trifluoromethyl)pyrazolo[1,5-a]pyrimidin-7(4H)-one]
20 to 100	< 20	COc1cccc2oc(-c3c(COCC4CNC(=O)O4)[nH]c4c(-c5ccccc5)c(C(F)(F)F)nn4c3=O)nc12 (centres unmarked) [Compound C1177, 5-(((6-(4-methoxybenzo[d]oxazol-2-yl)-7-oxo-3-phenyl-2-(trifluoromethyl)-4,7-dihydropyrazolo[1,5-a]pyrimidin-5-yl)methoxy)methyl)oxazolidin-2-one]
< 20	< 20	COc1cc(N(C)C)cc2oc(-c3c(C)[nH]c4c(-c5ccccc5)c(C(F)(F)F)nn4c3=O)nc12 [Compound C1162, 6-(6-(dimethylamino)-4-methoxybenzo[d]oxazol-2-yl)-5-methyl-3-phenyl-2-(trifluoromethyl)pyrazolo[1,5-a]pyrimidin-7(4H)-one]
< 20	> 250	Cc1[nH]c2c(-c3ccccc3)c(C(F)(F)F)nn2c(=O)c1-c1nc2ccccc2o1 [Compound C1011, 6-(benzo[d]oxazol-2-yl)-5-methyl-3-phenyl-2-(trifluoromethyl)pyrazolo[1,5-a]pyrimidin-7(4H)-one]
> 100	< 20	Cc1[nH]c2c(-c3ccccc3)c(C(F)(F)F)nn2c(=O)c1C(=O)NS(=O)(=O)c1cccc(C#N)c1 [Compound A1128, N-((3-cyanophenyl)sulfonyl)-5-methyl-7-oxo-3-phenyl-2-(trifluoromethyl)-4,7-dihydropyrazolo[1,5-a]pyrimidine-6-carboxamide]
> 100	< 20	COc1cccc2oc(-c3c(C(=O)NC4CCOCC4)[nH]c4c(-c5ccccc5)c(C(F)(F)F)nn4c3=O)nc12 [Compound C1194, 6-(4-methoxybenzo[d]oxazol-2-yl)-7-oxo-3-phenyl-N-(tetrahydro-2H-pyran-4-yl)-2-(trifluoromethyl)-4,7-dihydropyrazolo[1,5-a]pyrimidine-5-carboxamide]
20 to 100	< 20	COc1cccc(NC(=O)c2c(C)[nH]c3c(-c4ccccc4)c(C(F)(F)F)nn3c2=O)n1 [Compound A1064, N-(6-methoxypyridin-2-yl)-5-methyl-7-oxo-3-phenyl-2-(trifluoromethyl)-4,7-dihydropyrazolo[1,5-a]pyrimidine-6-carboxamide]
20 to 100	< 20	COc1ccnc(NC(=O)c2c(C)[nH]c3c(-c4ccccc4)c(C(F)(F)F)nn3c2=O)c1 [Compound A1063, N-(4-methoxypyridin-2-yl)-5-methyl-7-oxo-3-phenyl-2-(trifluoromethyl)-4,7-dihydropyrazolo[1,5-a]pyrimidine-6-carboxamide]
20 to 100	< 20	Cc1[nH]c2c(-c3ccccc3)c(C(F)(F)F)nn2c(=O)c1C(=O)Nc1ccccc1 [Compound A1002, 5-methyl-7-oxo-N,3-diphenyl-2-(trifluoromethyl)-4,7-dihydropyrazolo[1,5-a]pyrimidine-6-carboxamide]
20 to 100	< 20	Cc1[nH]c2c(-c3ccccc3)c(C(F)(F)F)nn2c(=O)c1C(=O)Nc1ccccc1S(=O)(=O)C(C)C [Compound A1051, N-(2-(isopropylsulfonyl)phenyl)-5-methyl-7-oxo-3-phenyl-2-(trifluoromethyl)-4,7-dihydropyrazolo[1,5-a]pyrimidine-6-carboxamide]
> 100	< 20	COc1cccc2oc(-c3c(C4CC(C(=O)O)C4)[nH]c4c(-c5ccccc5)c(C(F)(F)F)nn4c3=O)nc12 (centres unmarked) [Compound C1252, 3-(6-(4-methoxybenzo[d]oxazol-2-yl)-7-oxo-3-phenyl-2-(trifluoromethyl)-4,7-dihydropyrazolo[1,5-a]pyrimidin-5-yl)cyclobutane-1-carboxylic acid]
20 to 100	< 20	COc1c(C)ccc2oc(-c3c(C)[nH]c4c(-c5ccccc5)c(C(F)(F)F)nn4c3=O)nc12 [Compound C1093, 6-(4-methoxy-5-methylbenzo[d]oxazol-2-yl)-5-methyl-3-phenyl-2-(trifluoromethyl)pyrazolo[1,5-a]pyrimidin-7(4H)-one]
> 100	20 to 250	CC(=O)N1CCCC(c2nnc(-c3c(C)[nH]c4c(-c5ccccc5)c(C(F)(F)F)nn4c3=O)o2)C1 (centres unmarked) [Compound D1041, 6-(5-(1-acetylpiperidin-3-yl)-1,3,4-oxadiazol-2-yl)-5-methyl-3-phenyl-2-(trifluoromethyl)pyrazolo[1,5-a]pyrimidin-7(4H)-one]
> 100	< 20	Cc1[nH]c2c(-c3ccccc3)c(C#N)nn2c(=O)c1-c1nc2cccc(N)c2o1 [Compound C1230, 6-(7-aminobenzo[d]oxazol-2-yl)-5-methyl-7-oxo-3-phenyl-4,7-dihydropyrazolo[1,5-a]pyrimidine-2-carbonitrile]
> 100	< 20	Cc1[nH]c2c(-c3ccccc3)c(C(F)(F)F)nn2c(=O)c1-c1nnc(N2CCCCC2CN)o1 (centres unmarked) [Compound D1070, 6-(5-(2-(aminomethyl)piperidin-1-yl)-1,3,4-oxadiazol-2-yl)-5-methyl-3-phenyl-2-(trifluoromethyl)pyrazolo[1,5-a]pyrimidin-7(4H)-one]
> 100	< 20	Cc1[nH]c2c(-c3ccccc3)c(C(F)(F)F)nn2c(=O)c1-c1nnc(C2CCCN(S(C)(=O)=O)C2)o1 (centres unmarked) [Compound D1040, 5-methyl-6-(5-(1-(methylsulfonyl)piperidin-3-yl)-1,3,4-oxadiazol-2-yl)-3-phenyl-2-(trifluoromethyl)pyrazolo[1,5-a]pyrimidin-7(4H)-one]
< 20	< 20	Cc1[nH]c2c(-c3ccccc3)c(C(F)(F)F)nn2c(=O)c1-c1nc2c(C)cccc2o1 [Compound C1060, 5-methyl-6-(4-methylbenzo[d]oxazol-2-yl)-3-phenyl-2-(trifluoromethyl)pyrazolo[1,5-a]pyrimidin-7(4H)-one]
> 100	< 20	CC(=O)NCCOc1cccc2oc(-c3c(C)[nH]c4c(-c5ccccc5)c(C(F)(F)F)nn4c3=O)nc12 [Compound C1062, N-(2-((2-(5-methyl-7-oxo-3-phenyl-2-(trifluoromethyl)-4,7-dihydropyrazolo[1,5-a]pyrimidin-6-yl)benzo[d]oxazol-4-yl)oxy)ethyl)acetamide]
20 to 100	20 to 250	Cc1[nH]c2c(-c3ccccc3)c(C(F)(F)F)nn2c(=O)c1-c1nc2c(OCCN)cccc2o1 [Compound C1061, 6-(4-(2-aminoethoxy)benzo[d]oxazol-2-yl)-5-methyl-3-phenyl-2-(trifluoromethyl)pyrazolo[1,5-a]pyrimidin-7(4H)-one]
> 100	< 20	COc1cccc2oc(-c3c(COC4CCNC4=O)[nH]c4c(-c5ccccc5)c(C(F)(F)F)nn4c3=O)nc12 (centres unmarked) [Compound C1159, 6-(4-methoxybenzo[d]oxazol-2-yl)-5-(((2-oxopyrrolidin-3-yl)oxy)methyl)-3-phenyl-2-(trifluoromethyl)pyrazolo[1,5-a]pyrimidin-7(4H)-one]
> 100	< 20	COc1c(N)ccc2oc(-c3c(C)[nH]c4c(-c5ccccc5)c(C#N)nn4c3=O)nc12 [Compound C1250, 6-(5-amino-4-methoxybenzo[d]oxazol-2-yl)-5-methyl-7-oxo-3-phenyl-4,7-dihydropyrazolo[1,5-a]pyrimidine-2-carbonitrile]

— patent publication US10738056B2 (Aduro BioTech, Inc., priority 2017, dated 2020)
